Measured values: patent publication US20260116910A1, “POLYCYCLIC COMPOUNDS AND METHODS THEREOF” (HEPAITECH (BEIJING) BIOPHARMA TECHNOLOGY CO., LTD., priority 2021, published 2026)
Where two headings read alike, the source gives them in different places.

Experiments:
MRGPRX4 = MRGPRX4 (Homo sapiens, UniProt Q96LA9); assay: MRGPRX4 activation, Fluo-8 Ca2+ FLIPR assay in HEK293T cells stably expressing MRGPRX4; assay type: cell-based; parameters: key to MRGPRX4 activation, Average / MRGPRX4 activation, Ave.: fluorescence change dF/F0
MRGPRX4, sequence (Q96LA9 whole entry): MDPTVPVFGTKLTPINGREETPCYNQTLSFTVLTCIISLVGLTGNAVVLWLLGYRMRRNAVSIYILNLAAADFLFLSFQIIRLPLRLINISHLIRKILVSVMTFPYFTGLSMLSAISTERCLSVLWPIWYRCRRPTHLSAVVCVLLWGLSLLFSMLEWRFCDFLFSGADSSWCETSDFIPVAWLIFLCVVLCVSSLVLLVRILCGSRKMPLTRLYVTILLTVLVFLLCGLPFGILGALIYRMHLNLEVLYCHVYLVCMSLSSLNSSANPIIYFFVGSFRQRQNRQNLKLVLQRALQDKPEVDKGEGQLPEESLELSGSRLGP
Protocol: In some embodiments, cells were cultured in poly-D-Lys coated blacked walled, clear-bottom 96-well microplates. HEK293T cells stably expressing MRGPRX4 were cultured in DMEM medium supplemented with 10% FBS and 1% PS, at 37° C. in a humidified atmosphere with 5% CO2. Cells were detached by centrifuging (1000 rpm, 3 min). The pellet was re-suspended in medium, and cell density was adjusted to about 1×10^6 cells/mL. 100 μL suspension was seeded to each well of a microplates (cell plate). Cells in the microplates were cultured overnight. In the following day, cells were grown to higher than 95% density in each well.
Ca^2+ fluorescent dye loading: Fluo-8 AM (Screen Quest Fluo-8 AM Calcium Assay Kit, AAT Bioquest, cat. #: 21083) was diluted in HHBS buffer and adjusted to 2 μM (dye buffer). Medium in each well was changed into 50 μL dye buffer carefully. After incubation for 40-60 min under room temperature, the dye buffer was changed into 50 μL HHBS buffer.
The concentration of solution should be determined according to the protocol settings and experimental needs (e.g., Log[M]=−4, −5, −6, −7, −8, and −9). Prepare 2× serial dilution series of compounds (at least 75 μL per well).
A fluorescent signal baseline was measured using FLIPR®Tetra for 30 s. Then 50 μL of the chemical solution would be added to the cell plate. The fluorescent signal would be measured for another 150 s.
Activity of each compound was calculated by the fluorescence change (dF/F0). Curves were fitted to obtain EC50 values. In some embodiments, at least 3 repeats were performed to obtain the average values. For assessment of a compound, gradient diluted solutions of different concentrations were used to treat cells and corresponding responses were used to fit sigmoid function and to derive EC50 in Origin. In some embodiments, assessed concentrations were or included about 10^−4, 10^−4.5, 10^−5, 10^−5.5, 10^−6, 10^−6.5, 10^−7, 10^−8, and/or 10^−9 M; for example, in many instances, assessed concentrations included about 10^−5, 10^−6, 10^−7 and 10^−8 M. In some embodiments, assessed concentrations were about 10^−4, 10^−4.5, 10^−5, 10^−5.5, 10^−6, 10^−7, 10^−8, and 10^−9 M. In some embodiments, assessed concentrations were about 10^−4, 10^−5, 10^−6, 10^−7, 10^−8, and 10^−9 M. In some embodiments, assessed concentrations were about 10^−4, 10^−4.5, 10^−5, 10^−5.5, 10^−6, and 10^−7 M. In some embodiments, assessed concentrations were about 2000000, 1000000, 500000, 250000, 125000, 62500, 31250, 15625, 7813, 3906 nM. […] In some embodiments, assessed concentrations were about 30000, 10000, 3333, 1111, 370, 123, 41, 14, 4.6, 1.5 nM.

human FXR (NR1H4) = target: T1, human FXR (NR1H4) (Homo sapiens, UniProt Q96RI1); assay: Human FXR (NR1H4) agonist assessment, FXRE-NanoLuc reporter in HEK293T cells; assay type: cell-based
T1 sequence (Q96RI1 1-476 isoform Q96RI1-1): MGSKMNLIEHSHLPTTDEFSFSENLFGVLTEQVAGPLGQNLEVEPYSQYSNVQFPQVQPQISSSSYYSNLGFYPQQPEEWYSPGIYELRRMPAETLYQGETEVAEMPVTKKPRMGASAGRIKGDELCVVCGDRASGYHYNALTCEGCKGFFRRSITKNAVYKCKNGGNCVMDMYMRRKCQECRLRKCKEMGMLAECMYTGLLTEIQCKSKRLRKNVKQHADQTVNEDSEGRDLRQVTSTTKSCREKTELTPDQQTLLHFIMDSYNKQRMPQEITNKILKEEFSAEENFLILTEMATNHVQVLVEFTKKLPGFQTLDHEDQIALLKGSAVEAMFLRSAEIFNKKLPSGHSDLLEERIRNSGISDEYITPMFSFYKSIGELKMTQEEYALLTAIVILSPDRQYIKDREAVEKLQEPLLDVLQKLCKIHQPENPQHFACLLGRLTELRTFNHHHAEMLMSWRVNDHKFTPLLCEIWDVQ
Protocol: As those skilled in the art appreciate, various technologies are available for assessment of FXR activation in accordance with the present disclosure. […] Human FXR (NR1H4) agonist assessment (see, e.g., Yu et al. eLife 2019; 8: e48431): HEK293T cells stably expressing human FXR and containing FXR response element (FXRE)-NanoLuc reporter were cultured in DMEM medium supplemented with 10% FBS and 1% PS, at 37° C. in a humidified atmosphere with 5% CO2. Cells were detached by centrifuging (1000 rpm, 3 min). The pellet was re-suspended in medium, and cell density was adjusted to about 1×10^6 cells/mL. 100 μL suspension was seeded to each well of a white-walled, clear-bottom 96-well microplates (cell plate). Cells in microplates were cultured overnight.
In the following day, cells were grown to higher than 95% density in each well. Culture medium was replaced, and compounds were added to the wells. 0.01% DMSO (v/v) served as negative control. Plates were incubated at 37° C. in 5% CO2 for 24 hr.
In the following day, a 10 μL aliquot of cell culture medium was removed from each well and combined with 40 μL culture medium plus […] assay buffer (containing 20 mM of the luciferase substrate coelenterazine). After 5 min incubation, luminescence was measured using an EnVision plate reader (PerkinElmer).
In some embodiments, gradient diluted solutions of several concentrations were used to treat cells and corresponding responses were used to fit sigmoid function and to derive EC50 in Origin.

[1] = MRGPRX4 activation, Ca2+ fluorescence, no activation in tested range reported as III, read-out: Activity (EC50 μM)
[2] = FXR activation, HEK293T FXRE-NanoLuc reporter, 24 hr
[3] = FXR activation, HEK293T FXRE-NanoLuc reporter, 24 hr, read-out: EC50

Compound | EC50 (MRGPRX4; [1]) [µM] | Efficacy (maximum measured induction of NanoLuc, normalized to CDCA set as 100%) (human FXR (NR1H4); [2]) | EC50 (human FXR (NR1H4); [3]) [nM] | MRGPRX4 activation, Average (MRGPRX4; E3-9, Conc. (Log[M]) −4.0) | MRGPRX4 activation, Average (MRGPRX4; E3-9, Conc. (Log[M]) −4.5) | MRGPRX4 activation, Average (MRGPRX4; E3-9, Conc. (Log[M]) −5.0) | MRGPRX4 activation, Average (MRGPRX4; E3-9, Conc. (Log[M]) −5.4) | MRGPRX4 activation, Average (MRGPRX4; E3-9, Conc. (Log[M]) −5.9) | MRGPRX4 activation, Average (MRGPRX4; E3-9, Conc. (Log[M]) −6.4) | MRGPRX4 activation, Average (MRGPRX4; E3-9, Conc. (Log[M]) −6.9) | MRGPRX4 activation, Average (MRGPRX4; E3-9, Conc. (Log[M]) −7.3) | MRGPRX4 activation, Average (MRGPRX4; E3-9, Conc. (Log[M]) −7.8) | MRGPRX4 activation, Average (MRGPRX4; E3-9, Conc. (Log[M]) −8.3) | also measured
[2H]C1([2H])CC[C@@]2(C)[C@@H](C1)[C@@H](CC)[C@@H](O)[C@@H]1[C@@H]2CC[C@]2(C)[C@@H]([C@H](C)CCNC(=O)NS(=O)(=O)c3ccc(C(C)(C)CF)cc3)CC[C@@H]12 [12-2] | > 100 | A (efficacy >400%) | < 1000 | – | – | – | – | – | – | – | – | – | – | MRGPRX4 activation, Ave. (MRGPRX4; E3-7, Conc. (Log[M]) −4): 0.000; MRGPRX4 activation, Ave. (MRGPRX4; E3-7, Conc. (Log[M]) −4.5): −0.041; MRGPRX4 activation, Ave. (MRGPRX4; E3-7, Conc. (Log[M]) −5): −0.041; MRGPRX4 activation, Ave. (MRGPRX4; E3-7, Conc. (Log[M]) −5.5): −0.054; MRGPRX4 activation, Ave. (MRGPRX4; E3-7, Conc. (Log[M]) −6): −0.041; MRGPRX4 activation, Ave. (MRGPRX4; E3-7, Conc. (Log[M]) −7): −0.027
[2H]C1([2H])CC[C@@]2(C)[C@@H](C1)[C@@H](CC)[C@@H](O)[C@@H]1[C@@H]2CC[C@]2(C)[C@@H]([C@H](C)CCN=C=S)CC[C@@H]12 [14-2] | – | C (100%<efficacy <=300%) | – | 0.090 | 0.027 | 0.027 | 0.030 | 0.020 | 0.013 | 0.013 | 0.013 | 0.010 | 0.010 | EC50 (MRGPRX4): > 100 µM; EC50 (human FXR (NR1H4)): > 10000 nM
C[C@H](CCC(=O)O)[C@H]1CC[C@H]2[C@@H]3CC[C@@H]4C[C@@H](O)CC[C@]4(C)[C@H]3C[C@@H](O)[C@]12C [RC-6] | – | B (300%<efficacy <=400%) | 1000 to 10000 | – | – | – | – | – | – | – | – | – | – | MRGPRX4 activation, fluorescence change (dF/F0), Average (MRGPRX4; Conc. (Log[M]) −4): 0.259; MRGPRX4 activation, fluorescence change (dF/F0), Average (MRGPRX4; Conc. (Log[M]) −4.5): 0.208; MRGPRX4 activation, fluorescence change (dF/F0), Average (MRGPRX4; Conc. (Log[M]) −5): 0.145; MRGPRX4 activation, fluorescence change (dF/F0), Average (MRGPRX4; Conc. (Log[M]) −5.5): 0.009; MRGPRX4 activation, fluorescence change (dF/F0), Average (MRGPRX4; Conc. (Log[M]) −6): −0.013; MRGPRX4 activation, fluorescence change (dF/F0), Average (MRGPRX4; Conc. (Log[M]) −7): −0.007; MRGPRX4 activation, fluorescence change (dF/F0), Average (MRGPRX4; Conc. (Log[M]) −8): −0.015; MRGPRX4 activation, fluorescence change (dF/F0), Average (MRGPRX4; Conc. (Log[M]) −9): −0.008
CC[C@H]1[C@@H](O)[C@@H]2[C@H](CC[C@]3(C)[C@@H]([C@H](C)CCNC(=S)NS(=O)(=O)c4cccs4)CC[C@@H]23)[C@@]2(C)CCC(F)(F)C[C@@H]12 [11-3] | > 100 | – | < 1000 | 0.003 | 0.010 | 0.015 | 0.015 | 0.015 | 0.008 | 0.010 | 0.015 | 0.018 | 0.051 | Efficacy (maximum measured induction of NanoLuc, normalized to CDCA set as 100%) (human FXR (NR1H4)): C (key: A: efficacy >400%; B: 300%<efficacy <=400%; C: 100%<efficacy <=300%; D: efficacy <=100%)
CC[C@H]1[C@@H](O)[C@@H]2[C@H](CC[C@]3(C)[C@@H]([C@H](C)CCNC(=O)NS(=O)(=O)c4cc(F)cc(F)c4)CC[C@@H]23)[C@@]2(C)CCCC[C@@H]12 [5-24] | – | B (300%<efficacy <=400%) | < 1000 | – | – | – | – | – | – | – | – | – | – | MRGPRX4 activation, fluorescence change (dF/F0), Average (MRGPRX4; Conc. (Log[M]) −4.0): 0.021; MRGPRX4 activation, fluorescence change (dF/F0), Average (MRGPRX4; Conc. (Log[M]) −4.5): 0.012; MRGPRX4 activation, fluorescence change (dF/F0), Average (MRGPRX4; Conc. (Log[M]) −5.0): 0.021; MRGPRX4 activation, fluorescence change (dF/F0), Average (MRGPRX4; Conc. (Log[M]) −5.4): 0.019; MRGPRX4 activation, fluorescence change (dF/F0), Average (MRGPRX4; Conc. (Log[M]) −5.9): 0.011; MRGPRX4 activation, fluorescence change (dF/F0), Average (MRGPRX4; Conc. (Log[M]) −6.4): 0.013; MRGPRX4 activation, fluorescence change (dF/F0), Average (MRGPRX4; Conc. (Log[M]) −6.9): 0.013; MRGPRX4 activation, fluorescence change (dF/F0), Average (MRGPRX4; Conc. (Log[M]) −7.3): 0.013; MRGPRX4 activation, fluorescence change (dF/F0), Average (MRGPRX4; Conc. (Log[M]) −7.8): 0.008; MRGPRX4 activation, fluorescence change (dF/F0), Average (MRGPRX4; Conc. (Log[M]) −8.3): 0.011
CC[C@H]1[C@@H](O)[C@H]2[C@@H]3CC[C@](C)([C@H](C)CCNC(=O)NS(=O)(=O)C[C@]45CCC(CC4=O)C5(C)C)[C@H]3CC[C@@H]2[C@@]2(C)CC[C@H](F)C[C@@H]12 [9-5] | > 100 | – | < 1000 | 0.014 | 0.016 | 0.023 | 0.023 | 0.018 | 0.019 | 0.021 | 0.019 | 0.021 | 0.021 | Efficacy (maximum measured induction of NanoLuc, normalized to CDCA set as 100%) (human FXR (NR1H4)): C (key: A: efficacy >400%; B: 300%<efficacy <=400%; C: 100%<efficacy <=300%; D: efficacy <=100%)
CC[C@H]1[C@@H](O)[C@@H]2[C@H](CC[C@]3(C)[C@@H]([C@H](C)CCNC(=O)NS(=O)(=O)Cc4ccccc4)CC[C@@H]23)[C@@]2(C)CCCC[C@@H]12 [5-13] | > 100 | C (100%<efficacy <=300%) | < 1000 | – | – | – | – | – | – | – | – | – | – | MRGPRX4 activation, Average (MRGPRX4; E3-6-2, 1st of 6 concentration columns (head not in rows shown)): 0.060; MRGPRX4 activation, Average (MRGPRX4; E3-6-2, 3rd of 6 concentration columns (head not in rows shown)): 0.030; MRGPRX4 activation, Average (MRGPRX4; E3-6-2, 6th of 6 concentration columns (head not in rows shown)): 0.027; MRGPRX4 activation, Average (MRGPRX4; E3-6-2, concentration not given): 0.017
